Experimental data published in patent US20090104633A1, “Kit for Highly Sensitive Detection Assays” (priority 2005, published 2009).

How the values were obtained:
[1] = Hydrolysis half-lifes of active ester derivatives by 1H-NMR; type: physicochemical; details: 50 mM deuterated phosphate buffer, pD 7.2, room temperature, 1 mM active ester
Procedure: The hydrolysis half-lifes of active ester derivatives in physiological buffer were determined by ^1H-NMR spectroscopy. For this purpose a 50 mM phosphate buffer in deuterium oxide (D2O, […]) (deutero, Kastellaun, FRG), pD 7.2, was prepared. The phosphate salts were lyophilized thrice from fresh deuterium oxide. Finally, fresh D2O was added and the pD value was verified. […] To initiate the hydrolysis reaction 10 μl of these solutions were added to 490 μl of 50 mM deuterated phosphate-buffer, pD 7.2, spiked with 3-(trimethylsilyl)-1-propanesulfonic acid-D6 sodium salt (TMSPS) (Merck, Darmstadt, FRG) (0.1 mg/ml) as internal reference, resulting in a final concentration of active ester derivatives of 1 mM. The hydrolysis of the active esters was monitored at room temperature by ^1H-NMR spectroscopy with an Avance DRX-600 system (Bruker BioSpin, Rheinstetten, FRG) at 600 MHz. The first ^1H-spectrum was recorded 6-12 min after addition of the phosphate buffer, additional spectra were recorded at about 20, 40, 60, 120, 240, 360 and 1000-1600 min (over night). After the last measurement the pD-value was verified again. The hydrolysis reaction of each active ester derivative was measured in 2-3 independent experiments.
The Bruker software X-WIN-NMR (V 2.5; Bruker BioSpin) was used to acquire and process the data recorded at different time points. For this purpose, signals which were altered in intensity or chemical shift due to deuterolysis and which were not superimposed by signals of other nuclei were integrated and put in relation to the internal standard TMSPS. The concentration of the non-hydrolyzed active ester derivatives was calculated from the change of peak integrals and was plotted versus time.

[2] = target: T1, insulin (Bos taurus, UniProt P01317); experiment: Mean degree of derivatization of insulin with active esters (MALDI-TOF-MS); parameters: species or system bovine; details: 35 nMoles insulin reacted with 350 nMoles active ester, pH 7.2, 90 min RT; three independent experiments
T1 construct: 2 NH2-termini (chain A and B), 1 lysine side chain; purchased Sigma-Aldrich, Taufkirchen, FRG
T1 sequence (P01317 25-54 limits assumed): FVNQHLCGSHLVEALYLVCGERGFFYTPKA
T1 sequence (P01317 85-105 limits assumed): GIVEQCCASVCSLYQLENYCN
Procedure: (§1) Stock solutions of active esters of the labelling compounds summarized in Table 2 (4.2-9.2 mg/ml, 14 mM) as well as labelling compounds (7a), (7b) and (7c) (approximately 15 mM) were prepared freshly in anhydrous dimethylsulfoxide (DMSO) for each labelling experiment. Likewise, a stock solution of insulin (200 μg/ml, 35 μM; bovine insulin, MW 5733,49; Sigma-Aldrich, Taufkirchen, FRG) in 50 mM phosphate buffer, pH 7.2, 0.02 mM ethylenediaminetetraacetic acid (EDTA) (PBS/EDTA) was prepared. For labelling, insulin (35 nMoles, representing 105 nMoles amino functions (2 NH2-termini (chain A and B), 1 lysine side chain)) was reacted with active esters (350 nMoles) in a final volume of 1.25 ml PBS/EDTA, containing no more than 2% (v/v) DMSO in any experiment. The solutions were mixed on an end-to-end mixer for 90 min at RT and the labelling reactions were terminated by addition of glycine (1 mMole) in PBS/EDTA. Mixing was continued for 60 min at RT before the solution was dialyzed against PBS/EDTA (MWCO 2,000). After another dialysis against water, the heterogeneity of the samples and the molecular masses of the products were determined in MALDI-TOF-MS analyses (Bruker-Reflex II instrument; Bruker-Daltonik, Bremen, FRG). The mean labelling degree was calculated as described elsewhere (Olivier V, Meisen I, Meckelein B, Hirst T R, Peter-Katalinic J, Schmidt M A, Frey A (2003). Influence of targeting ligand flexibility on receptor binding of particulate drug delivery systems. Bioconjug Chem. 14:1203-8.) (Table 6).

[3] = target: T2, streptavidin-HRP (Streptomyces avidinii, UniProt P22629); experiment: Detection of active ester-labelled insulin on PVDF filterplates (HRP/TMB); type: binding; details: for Detection limit of labelled protein: insulin conjugate on PVDF, mean ± SEM; for Detection limit of label: insulin conjugate, converted from pg protein with labelling degree (Table 6)
T2 construct: purchased Vector Labs, Burlingame, Calif., USA
T2 sequence (P22629 25-183): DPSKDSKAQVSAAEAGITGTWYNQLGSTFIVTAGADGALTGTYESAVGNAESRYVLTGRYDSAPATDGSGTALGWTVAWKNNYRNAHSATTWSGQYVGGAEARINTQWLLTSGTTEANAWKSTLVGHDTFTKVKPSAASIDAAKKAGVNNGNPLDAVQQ
Procedure: as §1
The concentrations of the labelled polypeptides were determined by standard assays and serial dilutions of the solutions were prepared in PBS/EDTA. Equal amounts of the diluted solutions (1,000-0.12 ng conjugate/well, each in 50 μl PBS/EDTA) were applied onto 96-well polystyrene filterplates equipped with polyvinylidene fluoride (PVDF) membrane bottoms (Corning, Corning, N.Y., USA), which had been pre-activated with 70% (v/v) ethanol and washed with phosphate buffer. The plates were incubated for 30 min at room temperature before the solutions were sucked through the membranes with a MultiScreen vacuum manifold (Millipore, Schwalbach, FRG). […] Nonspecific binding sites were blocked with 200 μl/well 2% (w/v) caseinate in D-PBS (Caseinate-PBS) for 30 min at RT and the solutions were removed. […] After the plates were washed another 6× with PBST with the vacuum manifold and 6× with D-PBS with the plate washer, color was developed at room temperature in the dark with 75 μl/well of a highly sensitive tetramethylbenzidine-based substrate reagent (1 mM 3,3′,5,5′-tetramethylbenzidine, 3 mM H2O2 in 200 mM potassium citrate, pH 4.0; (Frey A, Meckelein B, Externest D, Schmidt M A (2000). A stable and highly sensitive 3,3′,5,5′-tetramethylbenzidine-based substrate reagent for enzyme-linked immunosorbent assays. J Immunol Methods. 233:47-56.)). The reaction was terminated after 30 min with 125 μl/well 1 M sulfuric acid.

[4] = target: T3, Streptavidin AlexaFluor680 (Streptomyces avidinii, UniProt P22629); experiment: Dot blot detection of active ester-labelled ovalbumin on nitrocellulose; type: binding; parameters: purchased Invitrogen; details: ovalbumin conjugate, mean ± SEM
T3 sequence (P22629 25-183): as above
Procedure: Stock solutions of 65-100 mg/ml (120-330 mM) active ester of the labelling compounds (Table 2) were prepared freshly in anhydrous dimethylsulfoxide (DMSO) for each labelling experiment. […] For labelling 100 nMoles ovalbumin (representing 2 μMoles amino functions) were reacted with 1.5 μMoles of active ester in a final volume of 300 μl 100 mM sodium tetraborate, pH 8.2, containing no more than 5% (v/v) DMSO in any experiment. The solutions were mixed on an end-to-end mixer for 180 min at RT and the labelling reactions were terminated by addition of 1.5 mmoles glycine in sodium tetraborate buffer. Mixing was continued overnight at 4° C. before the solutions were dialyzed against sodium tetraborate buffer. The concentrations of the labelled protein were determined by standard assays and serial dilutions of the stock solutions were prepared.

[5] = target: T3, Streptavidin AlexaFluor680; experiment: Dot blot detection of hydrazide-labelled glycoprotein (porcine mucin) on nitrocellulose; details: periodate-oxidized mucin, mean ± SEM
Procedure: All subsequent treatments of the membranes were carried out in tight fitting trays. For oxidation or the carbohydrate moieties of the glycoprotein the membranes were incubated for 20 min at RT in 3 ml (0.21 ml/cm^2 membrane) 10 mM sodium m-periodate (Sigma-Aldrich, Taufkirchen, FRG) in 100 mM sodium acetate buffer (pH 5). They were washed another 3× in D-PBS, incubated each for 60 min at RT with 3 ml (0.21 ml/cm^2 membrane) of 2.5 μM labelling-hydrazide (Table 4) in 100 mM sodium acetate buffer (pH 5), washed again 3× in D-PBS and blocked with 1% (w/v) Casein (Hammarsten grade, BDH, Poole, UK) in D-PBS (Casein-PBS) for 30 min at RT. Blocked membranes were incubated for 90 min at RT with 4 ml (0.28 ml/cm^2 membrane) diluted monoclonal antibodies against 2,4-dichlorophenoxyacetic acid or monoclonal antibodies against DIG or with AlexaFluor680-labelled streptavidin (for working concentrations see Table 3) in Casein-PBS and washed 3× with D-PBS. […] After intense washing with D-PBS fluorescence was read out on a fluorescence imager (Odyssey Infrared Imager, LI-COR Biosciences, Lincoln, Nebr., USA) and quantitated with an appropriate image analysis software (Odyssey Software v.1.2). Statistical analysis of the data was carried out with the GraphPad Prism Suite (v.4.0.0, GraphPad Software, San Diego, Calif., USA).

Compound	Hydrolysis half-life [1]	Mean labelling degree [2]	Detection limit of labelled protein [3]	Detection limit of label [3]	Detection limit of proteins after labelling with active ester derivatives [4]	Detection limit of proteins after labelling with hydrazide derivatives [5]
O=C1N[C@H]2[C@H](CS[C@H]2CCCCC(=O)ON2C(=O)CC(S(=O)(=O)[O-])C2=O)N1.[Na+] (stereo partly drawn) [Sulfo-NHS-biotin, Sulfo-Succinimidyl-(+)-biotin]	62 min	1.79 Mole label: Mole insulin	62,500.0 ± 15,343.4 pg	19,512.6 ± 4,790.2 fMole	246.5 ± 67.2 pg	–
O=C(CCCCCNC(=O)CCCC[C@@H]1SC[C@@H]2NC(=O)N[C@@H]21)NCCCCCC(=O)ON1C(=O)CCC1=O [NHS-SLC-biotin, SLC-NHS-(+)-Biotin]	–	0.08 Mole label: Mole insulin	1,277,778.0 ± 237,333.4 pg	17,829.0 ± 3,311.5 fMole	39063.0 ± 5508.0 pg	–
SLC-(+)-Biotinoylhydrazide [Biotin-C11 hydrazide]	–	–	–	–	–	114.6 ± 10.4^ pg
O=C(COc1ccc(Cl)cc1Cl)NCCCCCC(=O)ON1C(=O)CC(S(=O)(=O)[O-])C1=O.[Na+] (centres unmarked) [(3b), 6-(2-(2,4-dichlorophenoxy)acetylamino)-hexanoic acid-N-hydroxysulfosuccinimidyl-ester-sodium Salt]	231^(*^) min	1.61 Mole label: Mole insulin	–	–	–	–
O=C(COc1ccc(Cl)cc1Cl)ON1C(=O)CCC1=O [(1b)]	25 min	0.52 Mole label: Mole insulin	–	–	–	–
O=C(CCCC[C@@H]1SC[C@@H]2NC(=O)N[C@@H]21)NCCCCCC(=O)ON1C(=O)CC(S(=O)(=O)[O-])C1=O.[Na+] (stereo partly drawn) [Sulfo-NHS-LC-biotin, Sulfo-LC-(+)-Biotin]	101 min	1.72 Mole label: Mole insulin	33,854.2 ± 6,107.3 pg	10,156.0 ± 1,832.1 fMole	248.0 ± 66.6 pg	–
O=C(COc1ccc(Cl)cc1Cl)NCCCCCCCCCCC(=O)ON1C(=O)CC(S(=O)(=O)[O-])C1=O.[Na+] (centres unmarked) [(3d), 11-(2-(2,4-dichlorophenoxy)acetylamino)-undecanoic acid-N-hydroxysulfosuccinimidyl-ester-sodium Salt]	–	0.38 Mole label: Mole insulin	–	–	–	–
NNC(=O)CCCCCNC(=O)CCCC[C@@H]1SC[C@@H]2NC(=O)N[C@@H]21 [Biotin-C6 hydrazide, LC-(+)-Biotinoylhydrazide]	–	–	–	–	–	49.1 ± 6.3^ pg
C[C@]12CC[C@H](OCC(=O)NCCCCCC(=O)ON3C(=O)CCC3=O)C[C@H]1CC[C@@H]1[C@@H]2C[C@@H](O)[C@]2(C)[C@@H](C3=CC(=O)OC3)CC[C@]12O [DIG-C6-NHS, Digoxigenin-3-O-methylcarbonyl-ε-aminocaproyl-N-hydroxysuccinimide]	248^(*^) min	1.50 Mole label: Mole insulin	–	–	–	–
